Patent US20250122189A1, “FGFR4 INHIBITOR ACID SALT, PREPARATION METHOD THEREFOR AND USE THEREOF” (Abbisko Therapeutics Co., Ltd., priority 2021, published 2025)
Where a name gives a salt, the structure may show the parent alone.

Tests used:
Solubility in water = type: physicochemical; conditions: stirred 24 hrs at room temperature
Method: 2 mg of the p-toluenesulfonate salt of the compound of formula (I) (Form A) and 2 mg of the compound of formula (I) in free form were separately placed in a 2 mL glass bottle, 0.4 mL of water was added into the glass bottles separately, the two mixtures were each stirred for 24 hrs on a magnetic stirrer at room temperature and then centrifuged, and the content measurement was carried out by using a liquid phase.

[1] = In vivo pharmacokinetic experiment in monkeys; conditions: Monkey, 200 mpk (based on the compound in free form); 200 mg/kg
Text: The p-toluenesulfonate salt of the compound of formula (I) (Form A) and the compound of formula (I) in free form were each subjected to PK experiments in monkeys, and the administration dose was 200 mpk (based on the compound in free form).

[2] = Stability test under high temperature and accelerated conditions (chemical purity); type: physicochemical
Text: The p-toluenesulfonate salt of the compound of formula (I) (Form A) and the compound of formula (I) in free form were subjected to conditions of high temperature and accelerated experiments for stability test, and the chemical purity was used as an evaluation index to evaluate the stability of the p-toluenesulfonate salt of the compound of formula (I) (Form A) and the compound of formula (I) in free form.

[3] = Hygroscopic behavior test (dynamic vapor sorption); type: physicochemical; conditions: DVS, 25° C., relative humidity 0% to 90%
Text: The experimental method of characterizing the crystalline acidic salts of the compound of formula (I) using dynamic vapor sorption (DVS) is as follows: a small amount of crystalline acidic salt powder of the compound of formula (I) was placed in a precision sample pan that came with the instrument; after the sample was loaded, the aluminum pan was sent into the instrument for analysis. In the present patent, the instruments used for dynamic vapor sorption were all the DVS Intrinsic model, and the experimental parameters were set as follows: nitrogen was set as carrier gas, the constant temperature was set to 25° C., the rate of mass percentage change over a unit of time (dm/dt)=0.01%/min was used as a criterion for determining if an equilibrium is reached, and the program humidity change cycle was set as follows: the initial relative humidity was 0%, the relative humidity was 90% at the end of the cycle, 2 cycles were set, and each 10% R.H. change was a step.
The hygroscopic weight gains of the p-toluenesulfonate salt of the compound of formula (I) (Form A) in various relative humidity conditions (hygroscopic weight gain/pre-hygroscopic weight*100%) were measured according to the dynamic vapor sorption method to assess the hygroscopicity of the p-toluenesulfonate salt of the compound of formula (I) (Form A).

[4] = Solubility in physiological vehicle (25% PEG300/5% Solutol HS15/70% water); type: physicochemical; conditions: vehicle 25% PEG300/5% Solutol HS15/70% water (v/v/v), room temperature, various time points (FIG. 7)
Method: 80 mg of the p-toluenesulfonate salt of the compound of formula (I) (Form A) and 80 mg of the compound of formula (I) in free form were separately placed in a 4 mL glass bottle, 2 mL of vehicle (25% PEG300/5% Solutol HS15/70% water) (v/v/v) was added into the glass bottles separately, the two mixtures were each stirred on a magnetic stirrer at room temperature, samples were taken at various time points and centrifuged, and the content measurement was carried out by using a liquid phase.

Row | SMILES | Solubility (Solubility in water) [µg/mL] | AUC [1] [ng·h/mL] | Chemical stability (% initial) ([2]; 40° C./75% RH, 3 d) | Chemical stability (% initial) ([2]; 40° C./75% RH, 7 d) | Chemical stability (% initial) ([2]; 40° C./75% RH, 14 d) | Chemical stability (% initial) ([2]; 60° C., 3 d) | Chemical stability (% initial) ([2]; 60° C., 7 d) | Chemical stability (% initial) ([2]; 60° C., 14 d) | weight change along with the increase of relative humidity (hygroscopic weight gain) [3] | solubility compared with the compound of formula (I) in free form [4]
1 | C=CC(=O)N[C@H]1CCOC[C@H]1Nc1ncc2cc(-c3c(F)c(OC)cc(OC)c3F)nc(N3CC(C)(OC)C3)c2n1 [Compound of formula (I) in free form, N-((3S,4S)-3-((6-(2,6-difluoro-3,5-dimethoxyphenyl)-8-(3-methoxy-3-methylazetidin-1-yl)pyrido[3,4-d]pyrimidin-2-yl)amino)tetrahydro-2H-pyran-4-yl)acrylamide] | 25.6 | 9952 | 99.9 | 100.0 | 100.0 | 100.1 | 100.1 | 100.1 | – | –
2 | C=CC(=O)N[C@H]1CCOC[C@H]1Nc1ncc2cc(-c3c(F)c(OC)cc(OC)c3F)nc(N3CC(C)(OC)C3)c2n1 [p-toluenesulfonate salt of the compound of formula (I) (Form] | 1370 | 124860 | 100.2 | 100.1 | 100.0 | 100.3 | 99.8 | 99.8 | no more than 2% | significantly higher
